# Experiments:
# [1] = test system: präsynaptischer Dopaminrezeptoren; experiment: Determination of dopamine utilisation after AMPT treatment (whole-brain dopamine by HPLC with electrochemical detection); assay type: in vivo, Ratten; details: rats; 10 mg/kg s.c. at 0 and 2 hours; AMPT 250 mg/kg intraperitoneal; brains taken at 4 hours
# Excerpt: (§1) Im Vergleich zu der bekannten racemischen Verbindung 6-Methyl-9-amino-5,6,6a,7-tetrahydro-4H-benzo[de]thiazolo[4,-5-g] chinolin wurden daher beispielsweise die Verbindungen ((-)-Enantiomere) • a= 9-Amino-5,6,6a,7-tetrahydro-4H-benzo[de]thiazolo[4,5-g] chinolin • b= 6-Ethyl-9-amino-5,6,6a,7-tetrahydro-4H-benzo[de]-thiazolo[4,5-g]chinolin. • c= 6-Propyl-9-amino-5,6,6a,7-tetrahydro-4H-benzo[de]-thiazolo[4,5-g]chinolin • d= 6-Methyl-9-benzylamino-5,6,6a,7-tetrahydro-4H-benzo[de]-thiazolo[4,5-g]chinolin • e= 6-Ethyl-9-methylamino-5,6,6a,7-tetrahydro-4H-benzo[de]-thiazolo[4,5-g]chinolin • f= 6-Ethyl-9-dimethylamino-5,6,6a,7-tetrahydro-4H-benzo[de]thiazolo[4,5-g]chinolin. hinsichtlich ihrer Beeinflussung präsynaptischer Dopaminrezeptoren untersucht, wobei zunächst die Wirkung auf die exploratorische Aktivität von Mäusen getestet und anschließend die Beeinflussung der Dopaminutilisation und der Dopaminsynthese an Ratten wie folgt bestimmt wurden:
# Die Dopaminutilisation wurde an Ratten gemessen. Bei Tieren, die mit α-Methylparatyrosin (AMPT) (250 mg/kg intraperitoneal) behandelt werden, fällt die Dopaminkonzentration im Gesamthirn mit fortschreitender Versuchsdauer ab. Durch Substanzen, die an Autorezeptoren wirken, kann der Dopaminabfall (im Vergleich zu mit Kochsalzlösung behandelten Kontrolltieren) vermindert werden.
# Die Testsubstanzen werden zum Zeitpunkt 0 und 2 Stunden des Experiments - soweit nicht anders angegeben - zur Erstellung einer Dosis-Wirkungskurve mit 0,01 bis 10 mg/kg s.c. appliziert. Zum Zeitpunkt 4 Stunden des Experiments werden die Tiere getötet und die Gehirne der Dopaminbestimmung mittels Hochdruckflüssigkeitchromatographie mit elektrochemischer Detektion zugeführt. Bestimmt wird die durch die Testsubstanz bewirkte prozentuelle Steigerung der Dopaminutilisation nach AMPT-Behandlung.
# [2] = test system: präsynaptischer Dopaminrezeptoren; experiment: Inhibition of exploratory activity (light-beam interruptions by groups of 5 mice); assay type: in vivo, Mäusen; details: 10 mg/kg subcutaneous, measured 1 hour after injection over 5 minutes, versus saline controls
# Excerpt: as §1
# Die Aktititätsmessung erfolgte in Beobachtungskäfigen, die mit einer Infrarotlichtschranke versehen sind. Gemessen wird die Häufigkeit der Unterbrechung des Lichtstrahles durch eine Gruppe von 5 Mäusen innerhalb von 5 Minuten. Gruppen von jeweils 5 Tieren erhalten die zu untersuchende Substanz in einer Dosis von 10 mg/kg subkutan injiziert. 1 Stunde später werden die Tiere in die Beobachtungskäfige gebracht, wo sofort mit der Messung der exploratorischen Aktivität über 5 Minuten begonnen wird. Parallel bzw. alternierend zu Gruppen, die mit Testsubstanz behandelt wurden, werden kochsalzbehandelte Kontrollgruppen (o,9%ig; 0,1 ml/10 g Körpergewicht subkutan) untersucht.
# Alle diejenigen Substanzen wurden in die weitere Versuchsreihe aufgenommen, die als Vorbedingung eine Hemmung der exploratorischen Aktivität gegenüber den Kontrolltieren von >50% aufwiesen, wie es beispielsweise für die oben näher bezeichneten Verbindungen a,b,c,d,e, und f nachzuweisen war.
Structure (SMILES),Prozentuale Steigerung der Dopaminutilisation [1],Hemmung der exploratorischen Aktivität gegenüber den Kontrolltieren [2]
"CN1CCc2cccc3c2C1Cc1sc(N)nc1-3 (racemic) [Vergleich, 6-Methyl-9-amino-5,6,6a,7-tetrahydro-4H-benzo[de]thiazolo[4,5-g] chinolin, reference compound]",34%,
"Nc1nc2c(s1)CC1NCCc3cccc-2c31 (stereo not drawn) [a, 9-Amino-5,6,6a,7-tetrahydro-4H-benzo[de]thiazolo[4,5-g] chinolin]",,> 50%
"CCN1CCc2cccc3c2C1Cc1sc(N)nc1-3 (stereo not drawn) [b, 6-Ethyl-9-amino-5,6,6a,7-tetrahydro-4H-benzo[de]thiazolo[4,5-g]chinolin]",64%,> 50%
"CCCN1CCc2cccc3c2C1Cc1sc(N)nc1-3 (stereo not drawn) [c, 6-Propyl-9-amino-5,6,6a,7-tetrahydro-4H-benzo[de]thiazolo[4,5-g]chinolin]",112%,> 50%
"CN1CCc2cccc3c2C1Cc1sc(NCc2ccccc2)nc1-3 (stereo not drawn) [d, 6-Methyl-9-benzylamino-5,6,6a,7-tetrahydro-4H-benzo[de]thiazolo[4,5-g]chinolin]",,> 50%
"CCN1CCc2cccc3c2C1Cc1sc(NC)nc1-3 (stereo not drawn) [e, 6-Ethyl-9-methylamino-5,6,6a,7-tetrahydro-4H-benzo[de]thiazolo[4,5-g]chinolin]",,> 50%
"CCN1CCc2cccc3c2C1Cc1sc(N(C)C)nc1-3 (stereo not drawn) [f, 6-Ethyl-9-dimethylamino-5,6,6a,7-tetrahydro-4H-benzo[de]thiazolo[4,5-g]chinolin]",,> 50%
